Data taken from patent publication US11407750B2, “Derivatives of an FGFR inhibitor” (Incyte Corporation, priority 2019, dated 2022).
Like-named read-outs stand apart in the source and are kept apart here.

Legend:
[1] = molecular target: P-gp (Homo sapiens (Human), UniProt P08183); assay: Bidirectional transport across Caco-2 monolayers (P-gp mediated transport); format: in vitro ADME; conditions: for Papp A→B at 120 min, 3 μM / Papp B→A at 120 min, 3 μM / efflux ratio at 120 min, 3 μM / Papp A→B at 120 min, 30 μM / Papp B→A at 120 min, 30 μM / efflux ratio at 120 min, 30 μM / Papp A→B at 120 min, 1 μM / Papp B→A at 120 min, 1 μM: human; for efflux ratio at 120 min, 3 μM / efflux ratio at 120 min, 30 μM: read-out: Efflux Ratio (B-A/A-B)
P-gp, sequence (P08183 whole entry): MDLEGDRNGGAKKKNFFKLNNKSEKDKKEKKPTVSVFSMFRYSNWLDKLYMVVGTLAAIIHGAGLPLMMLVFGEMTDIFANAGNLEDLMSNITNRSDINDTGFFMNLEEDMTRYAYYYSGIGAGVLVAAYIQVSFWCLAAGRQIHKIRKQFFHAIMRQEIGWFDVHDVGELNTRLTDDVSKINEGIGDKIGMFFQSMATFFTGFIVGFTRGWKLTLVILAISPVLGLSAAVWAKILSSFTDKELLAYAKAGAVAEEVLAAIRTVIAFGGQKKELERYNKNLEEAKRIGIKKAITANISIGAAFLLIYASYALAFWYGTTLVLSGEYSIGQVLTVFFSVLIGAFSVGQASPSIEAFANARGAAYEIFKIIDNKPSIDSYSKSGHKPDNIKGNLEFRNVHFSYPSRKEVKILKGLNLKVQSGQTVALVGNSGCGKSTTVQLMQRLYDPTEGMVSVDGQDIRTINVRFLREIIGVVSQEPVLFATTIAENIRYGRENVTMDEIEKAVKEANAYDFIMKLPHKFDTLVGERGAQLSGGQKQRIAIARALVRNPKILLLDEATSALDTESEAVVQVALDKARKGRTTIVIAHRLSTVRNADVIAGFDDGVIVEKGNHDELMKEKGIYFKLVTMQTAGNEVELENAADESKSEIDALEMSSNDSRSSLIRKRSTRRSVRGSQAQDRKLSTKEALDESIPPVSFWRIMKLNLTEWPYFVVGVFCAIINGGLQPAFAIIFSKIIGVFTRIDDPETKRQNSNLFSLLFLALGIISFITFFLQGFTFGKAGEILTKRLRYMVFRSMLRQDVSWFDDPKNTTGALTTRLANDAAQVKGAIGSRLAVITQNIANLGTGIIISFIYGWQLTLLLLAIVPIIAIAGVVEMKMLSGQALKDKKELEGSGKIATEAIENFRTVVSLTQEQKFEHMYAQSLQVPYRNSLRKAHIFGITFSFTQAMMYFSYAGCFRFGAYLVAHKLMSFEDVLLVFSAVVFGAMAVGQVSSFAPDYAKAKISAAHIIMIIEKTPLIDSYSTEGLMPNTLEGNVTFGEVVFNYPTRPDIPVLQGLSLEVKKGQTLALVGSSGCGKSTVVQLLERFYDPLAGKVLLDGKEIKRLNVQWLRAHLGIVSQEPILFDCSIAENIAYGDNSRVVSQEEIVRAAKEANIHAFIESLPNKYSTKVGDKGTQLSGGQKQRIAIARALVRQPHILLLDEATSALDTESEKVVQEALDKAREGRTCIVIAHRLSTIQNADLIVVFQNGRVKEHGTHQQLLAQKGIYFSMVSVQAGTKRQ
Procedure: (§1) Caco-2 cells were grown in 96-well transwell plates with a seeding density of 14000 cell/well in DMEM medium. To determine the permeability in the absorptive direction (A-B), the test compound in HBSS was added to the donor compartment (apical side), and 4% BSA in HBSS was added into the receiver compartment (basolateral side). To determine whether a compound is a P-gp substrate, permeability values were measured in both the A-B and B-A directions (bidirectional transport assay) in the absence of 4% BSA. Digoxin and cyclosporine A were included as positive controls for P-gp substrate and inhibitor, respectively, to ensure the functionality of P-gp in the bidirectional transport assay. The test compound at various concentrations was added in the donor compartment (apical side for A-B transport and basolateral side for B-A transport) while HBSS solution was added in the receiver compartment (basolateral side for A-B transport and apical side for B-A transport). For permeability studies in the A-B direction, the donor volume was 0.075 mL, and the receiver volume was 0.25 mL. For permeability studies in the B-A direction, the donor volume was 0.25 mL, and the receiver volume was 0.075 mL. The incubation was carried out at 37° C. for 120 minutes. Transepithelial electrical resistance (TEER) was measured before and after the 120 minutes incubation to ensure the integrity of the cell monolayers. At the end of the incubation period, samples were removed from both the donor and receiver sides and mixed with acetonitrile for protein precipitation. The supernatants were collected after centrifugation for analysis using LC-MS/MS method.
(§2) Permeability coefficient (Papp) values from Caco-2 studies were determined using the following equation: Papp(cm/s)=(F*VD)/(SA*MD) where the flux rate (F, mass/time) was calculated from the slope of cumulative amounts of compound of interest on the receiver side, SA is the surface area of the cell membrane, VD is the donor volume, and MD is the initial amount of the solution in the donor chamber.
The efflux ratio from Caco-2 studies was calculated as the ratio of the Papp measured in the B-A direction divided by the Papp in the A-B direction.

[2] = molecular target: FGFR3 (Homo sapiens (Human), UniProt P22607); assay: FGFR Enzymatic Assay (FRET peptide phosphorylation), FGFR3; format: biochemical
FGFR3, sequence (P22607 23-806): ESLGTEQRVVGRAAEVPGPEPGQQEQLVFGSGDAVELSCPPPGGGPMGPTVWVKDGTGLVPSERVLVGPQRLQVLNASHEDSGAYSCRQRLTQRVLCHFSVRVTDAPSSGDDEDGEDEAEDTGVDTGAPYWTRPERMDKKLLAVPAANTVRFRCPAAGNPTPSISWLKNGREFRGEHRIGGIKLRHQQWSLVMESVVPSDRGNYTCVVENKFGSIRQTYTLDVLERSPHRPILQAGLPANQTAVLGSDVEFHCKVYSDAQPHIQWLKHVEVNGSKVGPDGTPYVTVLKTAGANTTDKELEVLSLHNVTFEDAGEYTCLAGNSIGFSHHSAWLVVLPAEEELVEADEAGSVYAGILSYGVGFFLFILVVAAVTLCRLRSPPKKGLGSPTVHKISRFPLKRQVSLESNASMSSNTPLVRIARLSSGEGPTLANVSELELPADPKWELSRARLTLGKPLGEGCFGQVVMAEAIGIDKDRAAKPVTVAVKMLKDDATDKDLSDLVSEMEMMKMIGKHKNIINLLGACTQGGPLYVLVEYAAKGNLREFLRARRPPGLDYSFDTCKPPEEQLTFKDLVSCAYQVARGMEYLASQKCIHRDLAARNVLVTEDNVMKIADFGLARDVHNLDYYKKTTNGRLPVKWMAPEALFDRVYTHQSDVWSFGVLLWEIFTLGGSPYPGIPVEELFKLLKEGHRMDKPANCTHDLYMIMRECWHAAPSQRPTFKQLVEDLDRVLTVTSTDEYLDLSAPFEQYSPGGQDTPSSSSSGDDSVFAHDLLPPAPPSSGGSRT
Procedure: (§3) The inhibitor potency of the exemplified compounds was determined in an enzyme discontinuous assay that measures peptide phosphorylation using FRET measurements to detect product formation. Inhibitors were serially diluted in DMSO and a volume of 0.2 μL was transferred to the wells of a 384-well plate. For the isoforms of FGFR (−1, −2, −3 wild-type and mutant isoforms, −4) including phosphorylated and un-phosphorylated proteins, a 5 μL/well volume of enzyme diluted in assay buffer (50 mM HEPES, 10 mM MgCl2, 1 mM EGTA, 0.01% Tween-20, 5 mM DTT, pH 7.5) was added to the plate and pre-incubated with inhibitor for 5 to 15 minutes at ambient temperature. Appropriate controls (enzyme blank and enzyme with no inhibitor) were included on the plate. The reaction was initiated by the addition of a 5 μL/well volume containing both biotinylated […] […] The ATP Km values were pre-determined for each FGFR isoform in a separate series of experiments. […] The plate was allowed to equilibrate for ˜10 minutes at ambient temperature before scanning on a PheraStar plate reader (BMG Labtech) instrument.
(§4) Either GraphPad prism or XLfit was used to analyze the data. The IC50 values were derived by fitting the data to a four parameter logistic equation producing a sigmoidal dose-response curve with a variable Hill coefficient. Prism equation: Y=Bottom+(Top−Bottom)/(1+10^((Log IC50−X)*Hill slope)); […]

[3] = molecular target: FGFR1 (Homo sapiens (Human), UniProt P11362); assay: FGFR Enzymatic Assay (FRET peptide phosphorylation), FGFR1; format: biochemical
FGFR1, sequence (P11362 22-822): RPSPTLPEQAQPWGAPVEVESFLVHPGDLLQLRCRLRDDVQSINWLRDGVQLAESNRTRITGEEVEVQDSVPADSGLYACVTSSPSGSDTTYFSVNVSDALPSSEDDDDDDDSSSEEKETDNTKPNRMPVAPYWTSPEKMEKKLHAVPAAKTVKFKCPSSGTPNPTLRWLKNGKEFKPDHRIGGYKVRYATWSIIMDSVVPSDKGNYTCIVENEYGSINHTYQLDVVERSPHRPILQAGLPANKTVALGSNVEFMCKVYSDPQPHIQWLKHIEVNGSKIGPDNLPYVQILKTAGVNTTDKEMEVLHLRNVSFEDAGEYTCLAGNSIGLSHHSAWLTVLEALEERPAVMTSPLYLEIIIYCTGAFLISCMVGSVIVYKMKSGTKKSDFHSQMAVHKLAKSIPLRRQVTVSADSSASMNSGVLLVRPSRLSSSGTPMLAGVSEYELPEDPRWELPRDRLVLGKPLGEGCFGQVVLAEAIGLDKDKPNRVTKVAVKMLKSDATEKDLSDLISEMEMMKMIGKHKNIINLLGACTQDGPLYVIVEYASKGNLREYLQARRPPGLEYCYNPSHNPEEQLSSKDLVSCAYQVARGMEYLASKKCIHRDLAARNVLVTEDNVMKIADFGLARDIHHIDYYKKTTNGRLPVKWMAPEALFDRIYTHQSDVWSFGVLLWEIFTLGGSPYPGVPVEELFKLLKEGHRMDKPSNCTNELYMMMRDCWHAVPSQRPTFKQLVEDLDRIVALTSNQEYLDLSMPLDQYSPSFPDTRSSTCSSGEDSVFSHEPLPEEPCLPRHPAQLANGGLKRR
Procedure: as §3, §4

[4] = molecular target: FGFR2 (Homo sapiens (Human), UniProt P21802); assay: FGFR Enzymatic Assay (FRET peptide phosphorylation), FGFR2; format: biochemical
FGFR2, sequence (P21802 22-821): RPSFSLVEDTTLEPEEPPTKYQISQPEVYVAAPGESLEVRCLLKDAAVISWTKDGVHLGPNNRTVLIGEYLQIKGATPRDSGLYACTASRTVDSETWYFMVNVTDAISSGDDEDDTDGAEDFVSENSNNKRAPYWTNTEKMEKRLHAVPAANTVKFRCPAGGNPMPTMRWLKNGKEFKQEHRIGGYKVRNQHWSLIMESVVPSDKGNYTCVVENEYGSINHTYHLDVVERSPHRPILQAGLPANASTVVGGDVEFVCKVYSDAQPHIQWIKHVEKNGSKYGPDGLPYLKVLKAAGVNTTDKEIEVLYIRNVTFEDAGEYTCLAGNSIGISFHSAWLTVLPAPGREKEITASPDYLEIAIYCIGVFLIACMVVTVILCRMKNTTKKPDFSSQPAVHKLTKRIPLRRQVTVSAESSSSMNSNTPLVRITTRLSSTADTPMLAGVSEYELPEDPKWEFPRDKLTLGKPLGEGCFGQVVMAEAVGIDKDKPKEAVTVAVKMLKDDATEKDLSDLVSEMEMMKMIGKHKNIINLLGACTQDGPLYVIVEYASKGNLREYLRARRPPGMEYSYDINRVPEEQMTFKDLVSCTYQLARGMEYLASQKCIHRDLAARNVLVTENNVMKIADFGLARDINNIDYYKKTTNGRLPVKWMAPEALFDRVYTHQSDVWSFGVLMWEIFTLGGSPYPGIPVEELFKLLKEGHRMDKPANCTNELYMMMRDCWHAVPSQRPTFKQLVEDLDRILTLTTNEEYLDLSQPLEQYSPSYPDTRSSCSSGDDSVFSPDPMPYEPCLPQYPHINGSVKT
Procedure: as §3, §4

[5] = Compound 1 human absorption, metabolism, and excretion study (single oral dose of [14C] Compound 1); format: in vivo; conditions: for % of Administered Dose in Feces Samples, Sum: sum 0-144 h; for % Total Radioactivity Pool of Hamilton Pools (0-24 h): blood/plasma samples
Procedure: An open label-study was conducted, assessing the mass balance, pharmacokinetics, and metabolite profiles of a single oral dose of [14C] Compound 1:
Blood/plasma, urine, and feces were collected from participants for 4 to 10 days after administration.
Human discharge criteria includes that a minimum of 90% of the administered radioactive dose is recovered; and that less than or equal to 1% of the administered radioactive dose is recovered in excreta (urine and feces combined) in 2 consecutive 24-hour urine and fecal collection samples.

[6] = molecular target: tyrosine-phosphorylated Fibroblast Growth Factor Receptor 2 alpha (FGFR2α) in KATO III cells (Homo sapiens, UniProt P21802); assay: KATOIII Whole Blood pFGFR2α ELISA Assay; format: cell-based
tyrosine-phosphorylated Fibroblast Growth Factor Receptor 2 alpha (FGFR2α) in KATO III cells, sequence (P21802 22-821 limits assumed): as the sequence (P21802 22-821) above
Procedure: To measure tyrosine-phosphorylated Fibroblast Growth Factor Receptor 2 alpha (FGFR2a) in KATO III spiked whole blood assay, KATO III cells were purchased from ATCC and maintained in Iscove's medium with 20% FBS (Gibco/Life Technologies). […] 50 uL of the cells were then spiked into a 96-deep well 2 ml polypropylene assay block (Costar) in the presence or absence of a concentration range of test compounds and 300 ul human heparinized whole blood (Biological Specialty Corp, Colmar Pa.). After 4 hours incubation in 37° C., the red cells were lysed using Qiagen EL buffer and the cell lysates were resuspended in lysis buffer (Cell Signaling) containing standard protease inhibitor cocktail (Calbiochem/EMD) and PMSF (Sigma) for 30 minutes ice. […] IC50 determination was performed by fitting the curve of inhibitor percent inhibition versus the log of the inhibitor concentration using the GraphPad Prism 5.0 software.

[7] = system: Caco-2 cells; assay: Permeability in Caco-2 cells (absorptive direction A-B); format: in vitro ADME; conditions: 4% BSA in receiver
Procedure: as §1, §2

[8] = as above; format: in vitro ADME; conditions: human, Caco-2, 4% BSA in receiver, read-out: CACO2 Pm
Procedure: as §1, §2

[9] = Caco-2, with cyclosporine A (CSA) 10 μM, with CSA 10 μM
[10] = Caco-2, with cyclosporine A (CSA) 5 μM, with CSA 5 μM
[11] = radioactive dose, single oral dose, healthy male subjects

SMILES	Papp A→B at 120 min, 30 μM ([1]; Caco-2, no inhibitor)	Papp B→A at 120 min, 30 μM ([1]; Caco-2, no inhibitor)	% of Administered Dose in Feces Samples ([5]; 0-24 h)	% of Administered Dose in Feces Samples ([5]; 24-48 h)	% of Administered Dose in Feces Samples ([5]; 48-72 h)	% of Administered Dose in Feces Samples ([5]; 72-96 h)	% of Administered Dose in Feces Samples ([5]; 96-120 h)	% of Administered Dose in Feces Samples ([5]; 120-144 h)	% of Administered Dose in Feces Samples, Sum [5]	CACO2 Pm [7]	Papp A→B at 120 min [8]	IC50 [2]	IC50 [3]	IC50 [4]	% Total Radioactivity Pool of Hamilton Pools (0-24 h) ([5]; 0-24 h)	further results
CCN1C(=O)N(c2c(F)c(OC)cc(OC)c2F)C(O)c2cnc3[nH]c(CN4CCOCC4)cc3c21 (centres unmarked) [Compound 3, 3-(2,6-difluoro-3,5-dimethoxyphenyl)-1-ethyl-4-hydroxy-8-(morpholinomethyl)-1,3,4,7-tetrahydro-2H-pyrrolo[3′,2′:5,6]pyrido[4,3-d]pyrimidin-2-one]	–	–	–	–	–	–	–	–	–	–	–	100 to 500 nM	10 to 100 nM	10 to 100 nM	6.0%	IC50 ([6]; read-out: FGFR2_WB_ELISA-KATOIII IC50; KATO III cells spiked into human whole blood, 4 hours): 1000 to 3000 nM
CCN1C(=O)N(c2c(F)c(O)cc(OC)c2F)Cc2cnc3[nH]c(C(=O)O)cc3c21 [Compound 5, 3-(2,6-difluoro-3-hydroxy-5-methoxyphenyl)-1-ethyl-2-oxo-2,3,4,7-tetrahydro-1H-pyrrolo[3′,2′: 5,6]pyrido[4,3-d]pyrimidine-8-carboxylic acid]	–	–	–	0.4%	0.6%	0.5%	0.0%	0.1%	1.6%	–	–	–	–	–	–	–
[2H]C([2H])([2H])Oc1cc(OC([2H])([2H])[2H])c(F)c(N2Cc3cnc4[nH]c(CN5CCOCC5)cc4c3N(CC)C2=O)c1F [Compound 6, 3-(2,6-difluoro-3,5-bis(methoxy-d3)phenyl)-1-ethyl-8-(morpholinomethyl)-1,3,4,7-tetrahydro-2H-pyrrolo[3′,2′:5,6]pyrido[4,3-d]pyrimidin-2-one]	–	–	–	–	–	–	–	–	–	–	16 ×10⁻⁶ cm/s	–	–	–	–	–

More lines, main results first:

Papp A→B at 120 min, 30 μM ([1]; Caco-2, no inhibitor)	Papp B→A at 120 min, 30 μM ([1]; Caco-2, no inhibitor)	% of Administered Dose in Feces Samples ([5]; 0-24 h)	% of Administered Dose in Feces Samples ([5]; 24-48 h)	% of Administered Dose in Feces Samples ([5]; 48-72 h)	% of Administered Dose in Feces Samples ([5]; 72-96 h)	% of Administered Dose in Feces Samples ([5]; 96-120 h)	% of Administered Dose in Feces Samples ([5]; 120-144 h)	% of Administered Dose in Feces Samples, Sum [5]	CACO2 Pm [7]	Papp A→B at 120 min [8]	SMILES	IC50 [2]	IC50 [3]	IC50 [4]	% Total Radioactivity Pool of Hamilton Pools (0-24 h) ([5]; 0-24 h)	further results
0.41 ± 0.07 ×10⁻⁶ cm/s	7.7 ± 2.8 ×10⁻⁶ cm/s	<0.1%	11.4%	14.5%	14.5%	1.6%	2.9%	44.4%	0.5 ×10E−6 cm/s	0.5 ×10⁻⁶ cm/s	CCN1C(=O)N(c2c(F)c(O)cc(OC)c2F)Cc2cnc3[nH]c(CN4CCOCC4)cc3c21 [Compound 2, 3-(2,6-difluoro-3-hydroxy-5-methoxyphenyl)-1-ethyl-8-(morpholinomethyl)-1,3,4,7-tetrahydro-2H-pyrrolo[3′,2′:5,6]pyrido[4,3-d]pyrimidin-2-one]	< 10 nM	< 10 nM	< 10 nM	–	substrate for Pgp transport ([1]; comparison of efflux ratios at 30 μM): more effective substrate for Pgp transport than Compound 1; Papp A→B at 120 min, 3 μM [1, 9]: 0.65 ± 0.11 ×10⁻⁶ cm/s; Papp B→A at 120 min, 3 μM [1, 9]: 2.2 ± 0.49 ×10⁻⁶ cm/s; efflux ratio at 120 min, 3 μM [1, 9]: 3.3 ± 1.2; Papp A→B at 120 min, 30 μM [1, 9]: 2 ± 0.33 ×10⁻⁶ cm/s; Papp B→A at 120 min, 30 μM [1, 9]: 3.1 ± 1.2 ×10⁻⁶ cm/s; efflux ratio at 120 min, 30 μM [1, 9]: 1.5 ± 0.59; Papp A→B at 120 min, 3 μM ([1]; Caco-2, no inhibitor): 0.43 ± 0.15 ×10⁻⁶ cm/s; Papp B→A at 120 min, 3 μM ([1]; Caco-2, no inhibitor): 11 ± 8 ×10⁻⁶ cm/s; efflux ratio at 120 min, 3 μM ([1]; Caco-2, no inhibitor): 25 ± 11; efflux ratio at 120 min, 30 μM ([1]; Caco-2, no inhibitor): 19; IC50 ([6]; KATO III cells spiked into human whole blood, 4 hours; read-out: FGFR2_WB_ELISA-KATOIII IC50): 50 to 250 nM
–	–	–	0.5%	2.3%	1.1%	0.2%	0.4%	4.5%	–	–	CCN1C(=O)N(c2c(F)c(O)cc(O)c2F)Cc2cnc3[nH]c(CN4CCOCC4)cc3c21 [Compound 4, 3-(2,6-difluoro-3,5-dihydroxyphenyl)-1-ethyl-8-(morpholinomethyl)-1,3,4,7-tetrahydro-2H-pyrrolo[3′,2′:5,6]pyrido[4,3-d]pyrimidin-2-one]	–	–	–	–	–
21 ± 1.1 ×10⁻⁶ cm/s	13 ± 1.6 ×10⁻⁶ cm/s	0.1%	0.6%	0.4%	0.2%	0.0%	0.0%	1.4%	11 ×10E−6 cm/s	11 ×10⁻⁶ cm/s	CCN1C(=O)N(c2c(F)c(OC)cc(OC)c2F)Cc2cnc3[nH]c(CN4CCOCC4)cc3c21 [Compound 1, 3-(2,6-difluoro-3,5-dimethoxyphenyl)-1-ethyl-8-(morpholin-4-ylmethyl)-1,3,4,7-tetrahydro-2H-pyrrolo[3′,2′:5,6]pyrido[4,3-d]pyrimidin-2-one]	–	–	–	64.5%	Papp A→B at 120 min, 1 μM [1, 10]: 12 ± 2.3 ×10⁻⁶ cm/s; Papp B→A at 120 min, 1 μM [1, 10]: 9 ± 1.8 ×10⁻⁶ cm/s; Papp A→B at 120 min, 30 μM [1, 10]: 18 ± 0.75 ×10⁻⁶ cm/s; Papp B→A at 120 min, 30 μM [1, 10]: 12 ± 1.3 ×10⁻⁶ cm/s; Papp A→B at 120 min, 1 μM ([1]; Caco-2, no inhibitor): 7.3 ± 1.6 ×10⁻⁶ cm/s; Papp B→A at 120 min, 1 μM ([1]; Caco-2, no inhibitor): 11 ± 0.95 ×10⁻⁶ cm/s; overall recovery of radioactivity in urine and feces ([5]; over the 240 hour study): 95.1%; time of peak total radioactivity and plasma Compound 1 concentrations ([5]; post dose, single oral dose, fasted): about 2.0 hours; dose recovered in feces [5, 11]: 82.4%; dose recovered in urine [5, 11]: 12.6%; % of Administered Dose in Urine Sample ([5]; urine, 0-6 h): 0.5%; % of Administered Dose in Urine Sample ([5]; urine, 6-12 h): 0.2%; % of Administered Dose in Urine Sample ([5]; urine, 12-24 h): 0.2%; % of Administered Dose in Urine Sample ([5]; urine, 24-48 h): 0.2%; % of Administered Dose in Urine Sample, Sum ([5]; urine, sum 0-48 h): 1.0%
